According to ChEMBL document CHEMBL1131772, “Synthesis of 8-Oxa analogues of norcocaine endowed with interesting cocaine-like activity” (Bioorg Med Chem Lett, 1999):

Columns and labels:
[1] = target: T1, Sodium-dependent dopamine transporter (Rattus norvegicus, UniProt P23977); assay: Binding affinity towards dopamine transporter using [3H]- mazindol as radioligand in rat striatal membranes; type: cell membranes, Striatum, Membrane
[2] = target: T1, Sodium-dependent dopamine transporter; assay: Inhibition of high affinity uptake of [3H]dopamine into striatal nerve endings (synaptosomes); type: subcellular, Brain

T1 sequence (P23977 whole entry): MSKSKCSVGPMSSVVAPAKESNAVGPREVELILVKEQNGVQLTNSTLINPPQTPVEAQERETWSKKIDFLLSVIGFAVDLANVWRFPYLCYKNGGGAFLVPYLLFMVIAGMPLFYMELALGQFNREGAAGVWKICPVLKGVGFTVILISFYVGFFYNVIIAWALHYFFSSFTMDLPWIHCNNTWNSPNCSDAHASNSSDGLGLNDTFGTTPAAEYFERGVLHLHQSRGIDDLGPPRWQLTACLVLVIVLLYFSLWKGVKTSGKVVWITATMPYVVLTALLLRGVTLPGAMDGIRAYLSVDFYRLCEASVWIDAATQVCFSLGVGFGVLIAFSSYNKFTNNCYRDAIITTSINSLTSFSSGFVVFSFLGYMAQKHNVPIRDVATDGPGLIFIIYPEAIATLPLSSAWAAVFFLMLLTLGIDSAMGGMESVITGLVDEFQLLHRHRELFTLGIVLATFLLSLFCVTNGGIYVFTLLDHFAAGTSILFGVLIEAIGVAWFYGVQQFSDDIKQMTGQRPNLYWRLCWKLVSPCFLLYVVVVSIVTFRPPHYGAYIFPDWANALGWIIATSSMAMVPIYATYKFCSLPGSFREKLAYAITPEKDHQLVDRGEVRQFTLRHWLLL

| SMILES | Ki [1] | Ki [2] |
| --- | --- | --- |
| COC(=O)[C@@H]1C2CCC(C[C@H]1OC(=O)c1ccccc1)O2 (some centres not stated) | 34 µM | 23 µM |
| COC(=O)[C@H]1C2CCC(C[C@@H]1OC(=O)c1ccccc1)O2 (stereo in doubt; (-)) | 4.7 µM | 6 µM |
| COC(=O)[C@H]1C2CCC(C[C@@H]1OC(=O)c1ccccc1)O2 (stereo in doubt; (+)) | 29.4 µM | 47.7 µM |
| COC(=O)[C@@H]1C2CCC(C[C@@H]1OC(=O)c1ccccc1)O2 (stereo in doubt; (-)) | 4.2 µM | 8.5 µM |
| COC(=O)[C@H]1C2CCC(C[C@H]1OC(=O)c1ccccc1)O2 (some centres not stated) | 38 µM | 35 µM |
| COC(=O)[C@@H]1C2CCC(C[C@@H]1OC(=O)c1ccccc1)O2 (stereo in doubt; (+)) | 3.1 µM | 9.4 µM |
